In US20090275562A1 (Cypress Biosciences, Inc., priority 2008, published 2009):

What was measured:
[1] = test system: 5-HT and NA reuptake sites; conditions: from U.S. Pat. No. 6,642,235; cited from earlier work
[2] = Example 4 tolerability study of mirtazapine and betahistine in healthy subjects; assay type: in vivo, human; conditions: 6 weeks; 15 mg mirtazapine evening, 8 or 16 mg betahistine morning; present-tense example
Procedure: (§1) The subjects receive 2 capsules per day, one in the morning and one at bedtime. […] All medications are administered in an over-encapsulated format that ensures blinding of study participants, staff and investigators. All subjects are scheduled to receive a total of 6 weeks of therapy, and are required to return to the clinics after 1, 2, 4 and 6 weeks of therapy. Patients are required to complete paper self-assessments, electronic diary assessments, computer based cognitive testing, as well as vital signs and weight assessments at the clinic visits.

[3] = Example 1 tolerability study of mirtazapine and reboxetine in healthy subjects; assay type: in vivo, human; conditions: 6 weeks; 15 mg mirtazapine evening, 2 or 4 mg reboxetine morning; present-tense example
Procedure: as §1

[4] = Example 1A clinical study, 6-week weight gain/loss with mirtazapine and reboxetine; assay type: in vivo, human; conditions: for Mean Change from Baseline (weight): Week 6, 4 mg reboxetine morning, 15 mg mirtazapine evening, female volunteers; for mean change in body mass over the course of the study, in words (FIGS. 1-4): completers with fasted body mass at baseline and end of week 6; for 6-week weight gain (or loss), in words: versus placebo, 6 weeks of therapy
Procedure: All medications were administered in an over-encapsulated format that ensures blinding of study participants, staff and investigators. All subjects received a total of 6 weeks of therapy. Vital signs and weight assessments were made at clinic visits at the beginning and end of the study and at various times during the study. Patient outcomes of sleep quality and propensity were evaluated using the Karolinska Sleepiness Scale (KSS) and the Epworth Sleepiness Scale (ESS). Standard safety review was also conducted for each of the subjects, including recordation of any adverse events.
Sensitivity analysis was performed for completers and for intention-to-treat, last observation carried forward ([…]).

[5] = controlled studies, cited from earlier work
[6] = Completers and MF (morning fasting) weight

Mean Change from Baseline (weight) [4, 6]	Mean Change from Baseline (weight) ([4]; Completers and NMF weight)	Mean Change from Baseline (weight) ([4]; ITT-LOCF & NMF weight)	Mean Change from Baseline (weight) ([4]; ITT-LOCF and MF weight)	mean change in body mass over the course of the study, in words (FIGS. 1-4) [4]	6-week weight gain (or loss), in words [4]	Compound	norepinephrine reuptake inhibitor selectivity (Ki5HT/KiNA) [1]	side effects caused, in words [2]	side effects caused, in words [3]	weight gain of greater than or equal to 7% of body weight, share of patients ([5]; placebo 0%)	appetite increase reported, share of patients ([5]; placebo 2%)	increase in body weight / weight gain ([4]; 6 weeks, text summary of the tables (values of Table 1A-1, mean ± standard error))
-1.61 kg	-1.7 kg	-1.693 kg	-1.685 kg	decrease in body mass	weight loss as compared to placebo-only	CCOc1ccccc1OC(c1ccccc1)C1CNCCO1 (racemic) [reboxetine, 2-[(2-ethoxyphenoxy)-phenyl-methyl]morpholine]	about 80	insomnia, nausea/vomiting, and weight loss	insomnia, nausea/vomiting, and weight loss			
						CN(C)CCC=C1c2ccccc2CCc2ccccc21 [amitriptyline]				5.9%	6%	
2.215 kg	1.943 kg	1.8 kg	2.043 kg	marked increase in body mass	significantly greater weight gain	CN1CCN2c3ncccc3Cc3ccccc3C2C1 (stereo not drawn) [mirtazapine, 1,2,3,4,10,14b-hexahydro-2-methylpyrazino[2,1-a]pyrido[2,3-c]benzazepine]		weight gain, sedation, and cognitive deficits	weight gain, sedation, and cognitive deficits			2.215 ± 0.385 kg
						(S,S)reboxetine	about 12,700					
